# Tested on: normal adult male rats
# Experiment: 28-day treatment of normal adult male rats: organ weight and histology of the male reproductive tract, epididymal sperm properties
# Format: in vivo
# Settings: 2.5 mg/kg subcutaneously, 28 days
# Method: The above-described properties of antiestrogens were obtained in tests that were performed with the ICI-antiestrogen 7α-[9-(4,4,5,5,5-pentafluoropentylsulfinyl)-nonyl]-estra-1,3,5(10)-triene-3,17β-diol on normal adult male rats.
# The test design and the results are described in the list below:
# Observations regarding the organ weight of the male reproductive tract and sperm properties: […]
smiles,measurement,setting,value
"C[C@]12CC[C@@H]3c4ccc(O)cc4C[C@@H](CCCCCCCCC[S+]([O-])CCCC(F)(F)C(F)(F)F)[C@H]3[C@@H]1CC[C@@H]2O (stereo partly drawn) [7α-[9-(4,4,5,5,5-pentafluoropentylsulfinyl)-nonyl]-estra-1,3,5(10)-triene-3,17β-diol]","histology of the organs studied (seminal vesicles, prostate, testicles, epididymis)",vs vehicle control,No effects
same,"weight of the organs studied (seminal vesicles, prostate, testicles, epididymis)",vs vehicle control,No effects
same,acrosomal state of sperm,epididymal sperm,Induction of an early incipient acrosomal reaction
same,sperm motility,epididymal sperm,Inhibition of motility

# — patent publication US20010056086A1, “USE OF ANTI-OESTROGENS AS MALE CONTRACEPTIVES” (priority 1995, published 2001)
